In brackets after ≈: the same amount, converted by molar mass.
Experiments:
Aphidius rhopalosiphi = assay: LR50; higher = less toxic; details: acute; mortality
Rattus norvegicus = details: acute; oral; mortality
Mus musculus = details: organ weight
Tagia sp. = details: chronic/long-term; reproduction
Folsomia candida = details: chronic/long-term; reproduction
[1] = chronic; duration: 133 days; other
Oncorhynchus mykiss = details: acute; duration: 96 hours; mortality
Apis mellifera = details: acute, mortality

SMILES: COc1ccnc(C(=O)N[C@H]2COC(=O)[C@H](Cc3ccccc3)[C@@H](OC(=O)C(C)C)[C@H](C)OC2=O)c1OCOC(=O)C(C)C [Fenpicoxamid]
- LR50 (Aphidius rhopalosiphi): > 129 g/ha
- LD50 (Rattus norvegicus): > 2000 mg/kg-day
- NOAEL (Oryctolagus sp.; chronic, New Zealand, no effects): 495 mg/kg-day
- NOAEL (Oryctolagus sp.; reproduction developmental, reproduction): 177 mg/kg-day
- NOAEL (Mus musculus; chronic, duration: 18 months): 5.27 mg/kg-day
- NOAEL (Mus musculus; subchronic, duration: 90 days, oral): 39.6 mg/kg-day
- NOEC (Tagia sp.): 9.93 mg/kg
- NOEC (Folsomia candida): 3.97 mg/kg
- LD50 (Colinus virginianus; acute, oral, mortality): > 2000 mg/kg-day
- NOEC (Colinus virginianus; reproduction developmental): 12.1 mg/kg-day
- NOEC [1]: 0.0001 mg/L
- LC50 (Oncorhynchus mykiss): 1.1 mg/L (≈ 1.79 µM)
- LD50 (Apis mellifera; dermal): > 202 µg/piece
- LD50 (Apis mellifera; oral, unspecified): > 303 µg/piece

Reference: EPA's ToxValDB 9.5 (doi:10.2903/j.efsa.2018.5146)
